The results in this text go back to patent US8748426B2, “Inhibitors of diacylglycerol acyl transferase” (Piramal Enterprises Limited, priority 2009, dated 2014).

Bounds are passed on as bounds.

By inhibition is commonly meant the drop in the measured response relative to a control, in per cent.

The first assay deals with T1, hDGAT1 (Homo sapiens, UniProt O75907).
T1 sequence (O75907 1-488): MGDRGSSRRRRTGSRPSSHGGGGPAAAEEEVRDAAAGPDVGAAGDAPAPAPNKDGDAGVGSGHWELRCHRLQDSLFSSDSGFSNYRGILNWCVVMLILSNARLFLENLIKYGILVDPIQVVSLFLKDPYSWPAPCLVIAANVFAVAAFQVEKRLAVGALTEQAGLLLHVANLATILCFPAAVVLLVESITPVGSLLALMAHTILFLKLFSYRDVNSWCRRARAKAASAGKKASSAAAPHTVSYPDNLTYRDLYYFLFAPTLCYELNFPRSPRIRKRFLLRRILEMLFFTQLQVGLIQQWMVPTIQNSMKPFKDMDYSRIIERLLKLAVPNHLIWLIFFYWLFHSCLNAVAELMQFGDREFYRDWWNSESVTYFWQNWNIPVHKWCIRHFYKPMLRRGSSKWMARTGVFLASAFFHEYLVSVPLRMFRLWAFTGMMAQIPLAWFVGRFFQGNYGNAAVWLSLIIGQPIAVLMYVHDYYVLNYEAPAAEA
The assay is described as follows: In-vitro DGAT1 assay (14C oleoyl CoA, hDGAT1 microsomes from Sf9 cells). The conditions noted are these: at 1 μM.
Regarding `CC(C)[C@@H](C(=O)O)N1Cc2ccc(-c3ccc(NC(=O)c4ccc(-c5ccccc5)cc4)cc3Cl)cc2C1=O` [Example 482, (S)-2-(6-(4-Biphenyl-4-ylcarboxamido-2-chlorophenyl)-1-oxoisoindolin-2-yl)-3-methylbutanoic acid], the “% Inhibition of hDGAT1” value is given as “++ (>50% Inhibition)”.
Same read-out and setting: the result for `CC(C)[C@@H](C(=O)O)N1Cc2ccc(-c3ccc(NC(=O)c4cnc5ccccc5c4)cc3)cc2C1=O` [Example 651] reads “+ (10-50% Inhibition)”.
With “(S)-2-(5-(4-(3-(2-Fluorophenyl)thioureido)phenyl)-1-oxoisoindolin-2-yl)-3-methylbutanoic acid [Example 257]”, the “% Inhibition of hDGAT1” value is “+ (10-50% Inhibition)”.

Staying with this assay, now noted: read-out: % Inhibition of hDGAT1.
Take `CC(C)[C@@H](C(=O)O)N1Cc2ccc(-c3ccc(NC(=O)Nc4ccc(F)c(F)c4)c(F)c3)cc2C1=O` [Example 440, (S)-2-(6-(4-(3-(3,4-Difluorophenyl)ureido)-3-fluorophenyl)-1-oxoisoindolin-2-yl)-3-methylbutanoic acid]: the inhibition at 1 µM is over 50%.
Take `COc1cc(NC(=O)c2ccc(OC(F)(F)F)cc2)ccc1-c1ccc2c(c1)C(=O)N([C@H](C(=O)O)C(C)C)C2` [Example 464, (S)-2-(6-(2-Methoxy-4-(4-(trifluoromethoxy)benzamido)phenyl)-1-oxoisoindolin-2-yl)-3-methylbutanoic acid]: the inhibition at 1 µM is 10 to 50%.
On the same count and under the same terms, the result for `CC(C)[C@@H](C(=O)O)N1Cc2ccc(-c3ccc(NC(=O)c4c(Cl)cccc4Cl)cc3)cc2C1=O` [Example 130, (S)-2-(6-(4-(2,6-Dichlorobenzamido)phenyl)-1-oxoisoindolin-2-yl)-3-methyl butanoic acid] reads 10 to 50%; that for `CC(C)[C@@H](C(=O)O)N1Cc2ccc(-c3ccc(NS(=O)(=O)Cc4ccccc4)cc3)cc2C1=O` [Example 94, (S)-3-Methyl-2-(1-oxo-6-(4-(phenylmethylsulfonamido)phenyl)isoindolin-2-yl)butanoic acid], 10 to 50%; that for `CC(C)[C@@H](C(=O)O)N1Cc2cc(-c3ccc(NS(=O)(=O)c4ccc(F)cc4F)cc3)ccc2C1=O` [Example 291, (S)-2-(5-(4-(2,4-Difluorophenylsulfonamido)phenyl)-1-oxoisoindolin-2-yl)-3-methylbutanoic acid], 10 to 50%.
The same measure, in the same setting: then `O=C(O)CCCN1Cc2cc(-c3ccc(NC(=O)Nc4cccc(C(F)(F)F)c4)cc3)ccc2C1=O` [Example 376, 4-(1-Oxo-5-(4-(3-(3-(trifluoromethyl)phenyl)ureido)phenyl)isoindolin-2-yl)butanoic acid], with 10 to 50%.
Same read-out and setting: the result for `Cc1ccc(C(=O)Nc2ccc(-c3ccc4c(c3)C(=O)N(C3(C(=O)O)CCC3)C4)cc2)cc1` [Example 582, 1-(6-(4-(4-Methylbenzamido)phenyl)-1-oxoisoindolin-2-yl)cyclobutane carboxylic acid] reads over 50%.
For `CCC(C#N)(CC)c1ccc(C(=O)Nc2ccc(-c3ccc4c(c3)C(=O)N([C@H](C(=O)O)C(C)C)C4)cc2)cc1` [Example 633, (S)-2-(6-(4-(4-(3-Cyanopentan-3-yl)benzamido)phenyl)-1-oxoisoindolin-2-yl)-3-methylbutanoic acid], the inhibition at 1 µM was over 50%.
Same read-out and setting: the result for `Cc1cccc(NC(=O)Nc2ccc(-c3ccc4c(c3)C(=O)N([C@H](C(=O)O)C(C)C)C4)cc2)c1` [Example 22, (S)-3-Methyl-2-(1-oxo-6-(4-(3-m-tolylureido)phenyl)isoindolin-2-yl)butanoic acid] reads 10 to 50%.
The same measure, in the same setting: the result for `CC(C)[C@@H](C(=O)O)N1Cc2ccc(-c3ccc(NC(=O)c4ccccc4)cc3)cc2C1=O` [Example 98, (S)-2-(6-(4-Benzamidophenyl)-1-oxoisoindolin-2-yl)-3-methylbutanoic acid] reads 10 to 50%.
On the same count and under the same terms, the result for `COc1ccc(C(=O)Nc2ccc(-c3ccc4c(c3)C(=O)N([C@H](C(=O)O)C(C)C)C4)cc2)c(OC)c1` [Example 156, (S)-2-(6-(4-(2,4-Dimethoxybenzamido)phenyl)-1-oxoisoindolin-2-yl)-3-methyl butanoic acid] reads over 50%; that for `CCOc1ccccc1C(=O)Nc1ccc(-c2ccc3c(c2)C(=O)N([C@H](C(=O)O)C(C)C)C3)cc1` [Example 202, (S)-2-(6-(4-(2-Ethoxybenzamido)phenyl)-1-oxoisoindolin-2-yl)-3-methylbutanoic acid], over 50%; that for `CC(C)[C@@H](C(=O)O)N1Cc2cc(-c3ccc(NC(=S)Nc4ccccc4C(F)(F)F)cc3)ccc2C1=O` [Example 271, (S)-3-Methyl-2-(1-oxo-5-(4-(3-(2-(trifluoromethyl)phenyl)thioureido)phenyl)isoindolin-2-yl)butanoic acid], 10 to 50%.
For the compound `CC(C)[C@@H](C(=O)O)N1Cc2cc(-c3ccc(NS(=O)(=O)c4ccc(C(F)(F)F)cc4)cc3)ccc2C1=O` [Example 299, (S)-3-Methyl-2-(1-oxo-5-(4-(4-(trifluoromethyl)phenylsulfonamido)phenyl)isoindolin-2-yl)butanoic acid], the inhibition at 1 µM lay in the range of 10 to 50%.
Same read-out and setting: the result for `CC(C)[C@@H](C(=O)O)N1Cc2cc(-c3ccc(NC(=S)Nc4cccc(F)c4)cc3)ccc2C1=O` [Example 259, (S)-2-(5-(4-(3-(3-Fluorophenyl)thioureido)phenyl)-1-oxoisoindolin-2-yl)-3-methyl butanoic acid] reads 10 to 50%; that for `COc1ccc(NC(=O)Nc2ccc(-c3ccc4c(c3)C(=O)N([C@H](C(=O)O)C(C)C)C4)cc2)cc1` [Example 28, (S)-2-(6-(4-(3-(4-Methoxyphenyl)ureido)phenyl)-1-oxoisoindolin-2-yl)-3-methylbutanoic acid], 10 to 50%.
Still for that read-out and setting: then `CCCCOc1ccc(C(=O)Nc2cnc(-c3ccc4c(c3)C(=O)N([C@H](C(=O)O)C(C)C)C4)cn2)cc1` [Example 509, (S)-2-(6-(5-(4-Butoxybenzamido)pyrazin-2-yl)-1-oxoisoindolin-2-yl)-3-methylbutanoic acid], with over 50%; and `CC(C)[C@@H](C(=O)O)N1Cc2ccc(-c3ccc(NC(=O)c4ccc(C(C)(C)C)cc4)nc3)cc2C1=O` [Example 492, (S)-2-(6-(6-(4-tert-Butylbenzamido)pyridin-3-yl)-1-oxoisoindolin-2-yl)-3-methylbutanoic acid], with over 50%; and `CC(C)[C@@H](C(=O)O)N1Cc2ccc(-c3ccc(NC(=O)NCc4ccccc4)cc3)cc2C1=O` [Example 18, (S)-2-(6-(4-(3-Benzylureido)phenyl)-1-oxoisoindolin-2-yl)-3-methylbutanoic acid], with 10 to 50%.
Same read-out and setting: then `O=C(Nc1ccc(-c2ccc3c(c2)C(=O)N(C2(C(=O)O)CC2)C3)cc1)c1ccc(C(F)(F)F)cc1` [Example 590, 1-(1-Oxo-6-(4-(4-(trifluoromethyl)benzamido)phenyl)isoindolin-2-yl)cyclo propane carboxylic acid], with over 50%.
As for `COc1cc(NC(=O)c2ccc(C(C)(C)C)cc2)ccc1-c1ccc2c(c1)C(=O)N([C@H](C(=O)O)C(C)C)C2` [Example 456, (S)-2-(6-(4-(4-tert-Butylbenzamido)-2-methoxyphenyl)-1-oxoisoindolin-2-yl)-3-methylbutanoic acid], the inhibition at 1 µM is 10 to 50%.
On the same count and under the same terms, then `CCCCCCc1ccc(C(=O)Nc2ccc(-c3ccc4c(c3)C(=O)N([C@H](C(=O)O)C(C)C)C4)cc2)cc1` [Example 182, (S)-2-(6-(4-(4-Hexylbenzamido)phenyl)-1-oxoisoindolin-2-yl)-3-methylbutanoic acid], with over 50%; and `O=C(Nc1ccc(-c2ccc3c(c2)C(=O)N([C@H](C(=O)O)c2ccccc2)C3)cc1)Nc1cccc(C(F)(F)F)c1` [Example 346, (S)-2-(1-Oxo-6-(4-(3-(3-(trifluoromethyl)phenyl)ureido)phenyl)isoindolin-2-yl)-2-phenylacetic acid], with 10 to 50%; and `CCCCCCCCc1ccc(C(=O)Nc2ccc(-c3ccc4c(c3)C(=O)N([C@H](C(=O)O)C(C)C)C4)cc2)cc1` [Example 172, (S)-3-Methyl-2-(6-(4-(4-octylbenzamido)phenyl)-1-oxoisoindolin-2-yl)butanoic acid], with over 50%.
The same measure, in the same setting: then `O=C(Nc1ccc(-c2ccc3c(c2)C(=O)N(C2(C(=O)O)CCC2)C3)cc1)c1ccc(Cl)cc1` [Example 578, 1-(6-(4-(4-Chlorobenzamido)phenyl)-1-oxoisoindolin-2-yl)cyclobutane carboxylic acid], with over 50%; and `CC(C)[C@@H](C(=O)O)N1Cc2ccc(-c3ccc(NC(=O)c4ccc(OC(F)(F)F)cc4)cc3)cc2C1=O` [Example 158, (S)-3-Methyl-2-(1-oxo-6-(4-(4-(trifluoromethoxy)benzamido)phenyl)isoindolin-2-yl)butanoic acid], with over 50%.
The same measure, in the same setting: then `CC(C)[C@H](C(=O)O)N1Cc2cc(-c3ccc(NC(=O)Nc4cccc(C(F)(F)F)c4)cc3)ccc2C1=O` [Example 361, (R)-3-Methyl-2-(1-oxo-5-(4-(3-(3-(trifluoromethyl)phenyl)ureido)phenyl)isoindolin-2-yl)butanoic acid], with 10 to 50%; and `CC(C)[C@@H](C(=O)O)N1Cc2ccc(-c3ccc(NC(=O)c4nc(-c5ccccc5)cs4)cc3)cc2C1=O` [Example 624, (S)-3-Methyl-2-(1-oxo-6-(4-(4-phenylthiazole-2-carboxamido)phenyl)isoindolin-2-yl)butanoic acid], with over 50%.
